Measured values as given in the NIST ThermoML archive (doi:10.1016/j.jct.2006.10.008).

Assays:
[1] = xn = mol fraction of the nth substance listed; conditions: 298.15 K, 101 kPa, Liquid
[2] = excess molar enthalpy (molar enthalpy of mixing); xn = mol fraction of the nth substance listed; conditions: 298.15 K, 101 kPa, Liquid, Calvet calorimetry

CCCCOC=O [butyl methanoate] + ClCCCl
Conditions | excess molar enthalpy [kcal/mol] | mass density [kg/m3]
[1], x1 = 0.0446 | – | 1222.63
[1], x1 = 0.087 | – | 1201.85
[1], x1 = 0.1314 | – | 1180.87
[1], x1 = 0.1786 | – | 1159.63
[1], x1 = 0.2266 | – | 1138.77
[1], x1 = 0.277 | – | 1117.89
[1], x1 = 0.3837 | – | 1076.58
[1], x1 = 0.4403 | – | 1056.07
[1], x1 = 0.5 | – | 1035.47
[1], x1 = 0.5622 | – | 1014.9
[1], x1 = 0.6248 | – | 995.09
[1], x1 = 0.6931 | – | 974.48
[1], x1 = 0.7645 | – | 953.92
[1], x1 = 0.8389 | – | 933.51
[2], x1 = 0.0414 | -0.00954 | –
[2], x1 = 0.0923 | -0.0212 | –
[2], x1 = 0.1436 | -0.0343 | –
[2], x1 = 0.1984 | -0.0481 | –
[2], x1 = 0.2527 | -0.0619 | –
[2], x1 = 0.3048 | -0.075 | –
[2], x1 = 0.3561 | -0.08504 | –
[2], x1 = 0.4041 | -0.09405 | –
[2], x1 = 0.4493 | -0.1003 | –
[2], x1 = 0.4629 | -0.1006 | –
[2], x1 = 0.5202 | -0.1025 | –
[2], x1 = 0.5856 | -0.1005 | –
[2], x1 = 0.6594 | -0.09278 | –
[2], x1 = 0.7406 | -0.0785 | –
[2], x1 = 0.829 | -0.0569 | –
[2], x1 = 0.9165 | -0.0319 | –

ClCCCCCCl [1,5-dichloropentane] + CCCCOC=O
Conditions | excess molar enthalpy [kcal/mol] | mass density [kg/m3]
[1], x2 = 0.0753 | – | 1081.49
[1], x2 = 0.1366 | – | 1070.16
[1], x2 = 0.2613 | – | 1046.7
[1], x2 = 0.3251 | – | 1034.45
[1], x2 = 0.3849 | – | 1022.81
[1], x2 = 0.4446 | – | 1011
[1], x2 = 0.5039 | – | 999.1
[1], x2 = 0.6199 | – | 975.33
[1], x2 = 0.676 | – | 963.59
[1], x2 = 0.732 | – | 951.7
[1], x2 = 0.787 | – | 939.85
[1], x2 = 0.841 | – | 928.06
[1], x2 = 0.8939 | – | 916.34
[1], x2 = 0.9477 | – | 904.29
[2], x2 = 0.0722 | 0.000717 | –
[2], x2 = 0.1463 | -0.000837 | –
[2], x2 = 0.2242 | -0.0054 | –
[2], x2 = 0.2989 | -0.0111 | –
[2], x2 = 0.3685 | -0.0188 | –
[2], x2 = 0.4319 | -0.0268 | –
[2], x2 = 0.4894 | -0.0315 | –
[2], x2 = 0.5395 | -0.0354 | –
[2], x2 = 0.5701 | -0.037 | –
[2], x2 = 0.5843 | -0.0369 | –
[2], x2 = 0.6266 | -0.0344 | –
[2], x2 = 0.6861 | -0.0311 | –
[2], x2 = 0.7462 | -0.0271 | –
[2], x2 = 0.8107 | -0.0216 | –
[2], x2 = 0.8755 | -0.0156 | –
[2], x2 = 0.9382 | -0.00894 | –

CCCOC=O [propyl methanoate] + ClCCCCCCCl
Conditions | excess molar enthalpy [kcal/mol] | mass density [kg/m3]
[1], x1 = 0.0918 | – | 1053.78
[1], x1 = 0.1702 | – | 1044.88
[1], x1 = 0.2469 | – | 1035.63
[1], x1 = 0.3218 | – | 1026.16
[1], x1 = 0.3877 | – | 1017.4
[1], x1 = 0.4551 | – | 1008
[1], x1 = 0.5167 | – | 998.95
[1], x1 = 0.5747 | – | 990.06
[1], x1 = 0.6303 | – | 981.16
[1], x1 = 0.6844 | – | 972.09
[1], x1 = 0.7354 | – | 963.2
[1], x1 = 0.7849 | – | 954.19
[1], x1 = 0.8768 | – | 936.4
[1], x1 = 0.9196 | – | 927.69
[1], x1 = 0.9603 | – | 919.06
[2], x1 = 0.083 | 0.0159 | –
[2], x1 = 0.1781 | 0.0287 | –
[2], x1 = 0.2715 | 0.0378 | –
[2], x1 = 0.3516 | 0.0422 | –
[2], x1 = 0.4261 | 0.0428 | –
[2], x1 = 0.5 | 0.0403 | –
[2], x1 = 0.5567 | 0.0351 | –
[2], x1 = 0.6558 | 0.0259 | –
[2], x1 = 0.7057 | 0.0203 | –
[2], x1 = 0.7584 | 0.015 | –
[2], x1 = 0.815 | 0.00994 | –
[2], x1 = 0.8628 | 0.00602 | –
[2], x1 = 0.91 | 0.00292 | –
[2], x1 = 0.9591 | 0.00213 | –

CCOC=O [ethyl methanoate] + ClCCCl
Conditions | excess molar enthalpy [kcal/mol] | mass density [kg/m3]
[1], x1 = 0.0571 | – | 1226.06
[1], x1 = 0.1212 | – | 1204.8
[1], x1 = 0.1793 | – | 1185.79
[1], x1 = 0.2317 | – | 1168.78
[1], x1 = 0.2946 | – | 1148.35
[1], x1 = 0.355 | – | 1128.9
[1], x1 = 0.4144 | – | 1109.76
[1], x1 = 0.465 | – | 1093.66
[1], x1 = 0.5294 | – | 1073.24
[1], x1 = 0.5889 | – | 1054.49
[1], x1 = 0.6485 | – | 1035.88
[1], x1 = 0.7065 | – | 1017.61
[1], x1 = 0.7648 | – | 999.52
[1], x1 = 0.8239 | – | 981.06
[1], x1 = 0.8823 | – | 962.96
[1], x1 = 0.9345 | – | 946.9
[2], x1 = 0.0533 | -0.0075 | –
[2], x1 = 0.117 | -0.0173 | –
[2], x1 = 0.1872 | -0.0268 | –
[2], x1 = 0.2551 | -0.0353 | –
[2], x1 = 0.3201 | -0.0432 | –
[2], x1 = 0.3798 | -0.05 | –
[2], x1 = 0.4359 | -0.0549 | –
[2], x1 = 0.4835 | -0.0584 | –
[2], x1 = 0.5094 | -0.0598 | –
[2], x1 = 0.5591 | -0.0598 | –
[2], x1 = 0.6134 | -0.0574 | –
[2], x1 = 0.6735 | -0.0546 | –
[2], x1 = 0.7374 | -0.0485 | –
[2], x1 = 0.8 | -0.0397 | –
[2], x1 = 0.8714 | -0.0283 | –
[2], x1 = 0.9368 | -0.0146 | –

ClCCCCCCCl [1,6-dichlorohexane] + CCCCOC=O
Conditions | excess molar enthalpy [kcal/mol] | mass density [kg/m3]
[1], x2 = 0.074 | – | 1053.56
[1], x2 = 0.1444 | – | 1043.66
[1], x2 = 0.2217 | – | 1032.43
[1], x2 = 0.2795 | – | 1023.76
[1], x2 = 0.3441 | – | 1013.82
[1], x2 = 0.4081 | – | 1003.67
[1], x2 = 0.5278 | – | 983.77
[1], x2 = 0.586 | – | 973.68
[1], x2 = 0.641 | – | 963.84
[1], x2 = 0.702 | – | 952.63
[1], x2 = 0.7544 | – | 942.71
[1], x2 = 0.856 | – | 922.68
[1], x2 = 0.9056 | – | 912.53
[1], x2 = 0.9528 | – | 902.59
[2], x2 = 0.095 | 0.006 | –
[2], x2 = 0.1874 | 0.00985 | –
[2], x2 = 0.2768 | 0.0102 | –
[2], x2 = 0.3583 | 0.00722 | –
[2], x2 = 0.4321 | 0.00131 | –
[2], x2 = 0.4949 | -0.00696 | –
[2], x2 = 0.5195 | -0.00906 | –
[2], x2 = 0.5526 | -0.0129 | –
[2], x2 = 0.566 | -0.0141 | –
[2], x2 = 0.616 | -0.0186 | –
[2], x2 = 0.6674 | -0.0208 | –
[2], x2 = 0.7246 | -0.0205 | –
[2], x2 = 0.7832 | -0.0183 | –
[2], x2 = 0.8346 | -0.0157 | –
[2], x2 = 0.892 | -0.0102 | –
[2], x2 = 0.9474 | -0.0059 | –
